Source: the NIST ThermoML archive (doi:10.1021/je100765j)
± gives the expanded uncertainty stated by the source.

Key:
[1] = refractive index (Na D-line) (dimensionless); conditions: 101.33 kPa, Liquid, Standard Abbe refractometry
[2] = 101.33 kPa, Liquid; for speed of sound: Sing-around technique in a fixed-path interferometer; for mass density: Vibrating tube method

For CC(C)(C)Cl [2-chloro-2-methylpropane], the refractive index ([1]; 283.15 K) was 1.39115 ± 0.00037, the refractive index ([1]; 288.15 K) was 1.38821 ± 0.00037 and the refractive index ([1]; 293.15 K) was 1.38522 ± 0.00037. It also gave a refractive index ([1]; 298.15 K) of 1.38225 ± 0.00037, a refractive index ([1]; 303.15 K) of 1.37921 ± 0.00037 and a refractive index ([1]; 308.15 K) of 1.37619 ± 0.00037. The refractive index ([1]; 313.15 K) was 1.37312 ± 0.00037, the speed of sound ([2]; 283.15 K) was 1046.9 ± 1.1 m/s and the mass density ([2]; 283.15 K) was 855.249 ± 0.23 kg/m3. The speed of sound ([2]; 288.15 K) was 1025.5 ± 1.1 m/s, the mass density ([2]; 288.15 K) was 849.243 ± 0.23 kg/m3 and the speed of sound ([2]; 293.15 K) was 1004.1 ± 1.1 m/s. It also gave a mass density ([2]; 293.15 K) of 843.191 ± 0.23 kg/m3, a speed of sound ([2]; 298.15 K) of 983.25 ± 1.1 m/s and a mass density ([2]; 298.15 K) of 837.096 ± 0.23 kg/m3. For the same compound, the speed of sound ([2]; 303.15 K) was 961.51 ± 1.1 m/s, the mass density ([2]; 303.15 K) was 830.958 ± 0.23 kg/m3 and the speed of sound ([2]; 308.15 K) was 940.46 ± 1.1 m/s. For the same compound, the mass density ([2]; 308.15 K) was 824.772 ± 0.23 kg/m3, the speed of sound ([2]; 313.15 K) was 919.41 ± 1.1 m/s and the mass density ([2]; 313.15 K) was 818.536 ± 0.24 kg/m3.
In the case of CC(C)OC(C)C [diisopropyl ether], the refractive index ([1]; 283.15 K) is reported as 1.37358 ± 0.00037, the refractive index ([1]; 288.15 K) is reported as 1.37084 ± 0.00037 and the refractive index ([1]; 293.15 K) is reported as 1.36812 ± 0.00037. For the same compound, the refractive index ([1]; 298.15 K) was 1.36525 ± 0.00037, the refractive index ([1]; 303.15 K) was 1.36242 ± 0.00037 and the refractive index ([1]; 308.15 K) was 1.35956 ± 0.00037. The refractive index ([1]; 313.15 K) was 1.35667 ± 0.00037, the speed of sound ([2]; 283.15 K) was 1065.5 ± 1.1 m/s and the mass density ([2]; 283.15 K) was 733.833 ± 0.24 kg/m3. For the same compound, the speed of sound ([2]; 288.15 K) was 1043.1 ± 1.1 m/s, the mass density ([2]; 288.15 K) was 728.692 ± 0.24 kg/m3 and the speed of sound ([2]; 293.15 K) was 1020.6 ± 1.1 m/s. The mass density ([2]; 293.15 K) was 723.509 ± 0.24 kg/m3, the speed of sound ([2]; 298.15 K) was 998.27 ± 1.1 m/s and the mass density ([2]; 298.15 K) was 718.289 ± 0.24 kg/m3. The speed of sound ([2]; 303.15 K) was 976.02 ± 1.1 m/s, the mass density ([2]; 303.15 K) was 713.032 ± 0.25 kg/m3 and the speed of sound ([2]; 308.15 K) was 953.94 ± 1.1 m/s. The mass density ([2]; 308.15 K) was 707.727 ± 0.25 kg/m3, the speed of sound ([2]; 313.15 K) was 932.01 ± 1.1 m/s and the mass density ([2]; 313.15 K) was 702.378 ± 0.25 kg/m3.
Work on CCC(C)Cl (stereo not given) [2-chlorobutane] yielded a refractive index ([1]; 283.15 K) of 1.40226 ± 0.00037, a refractive index ([1]; 288.15 K) of 1.39953 ± 0.00037 and a refractive index ([1]; 293.15 K) of 1.3968 ± 0.00037. For the same compound, the refractive index ([1]; 298.15 K) was 1.39404 ± 0.00037, the refractive index ([1]; 303.15 K) was 1.39125 ± 0.00037 and the refractive index ([1]; 308.15 K) was 1.38844 ± 0.00037. The refractive index ([1]; 313.15 K) was 1.38562 ± 0.00037, the speed of sound ([2]; 283.15 K) was 1127.7 ± 1.2 m/s and the mass density ([2]; 283.15 K) was 884.34 ± 0.23 kg/m3. The speed of sound ([2]; 288.15 K) was 1107.2 ± 1.2 m/s, the mass density ([2]; 288.15 K) was 878.756 ± 0.23 kg/m3 and the speed of sound ([2]; 293.15 K) was 1086.7 ± 1.1 m/s. For the same compound, the mass density ([2]; 293.15 K) was 873.13 ± 0.23 kg/m3, the speed of sound ([2]; 298.15 K) was 1066.2 ± 1.1 m/s and the mass density ([2]; 298.15 K) was 867.474 ± 0.23 kg/m3. The speed of sound ([2]; 303.15 K) was 1045.9 ± 1.1 m/s, the mass density ([2]; 303.15 K) was 861.779 ± 0.23 kg/m3 and the speed of sound ([2]; 308.15 K) was 1025.3 ± 1.1 m/s. The mass density ([2]; 308.15 K) was 856.044 ± 0.23 kg/m3, the speed of sound ([2]; 313.15 K) was 1005.3 ± 1.1 m/s and the mass density ([2]; 313.15 K) was 850.266 ± 0.23 kg/m3.
For CC(C)CCl [1-chloro-2-methylpropane], the refractive index ([1]; 283.15 K) was 1.40354 ± 0.00037, the refractive index ([1]; 288.15 K) was 1.4008 ± 0.00037 and the refractive index ([1]; 293.15 K) was 1.39802 ± 0.00037. It also gave a refractive index ([1]; 298.15 K) of 1.39529 ± 0.00037, a refractive index ([1]; 303.15 K) of 1.39245 ± 0.00037 and a refractive index ([1]; 308.15 K) of 1.38963 ± 0.00037. The refractive index ([1]; 313.15 K) was 1.38683 ± 0.00037, the speed of sound ([2]; 283.15 K) was 1141.7 ± 1.2 m/s and the mass density ([2]; 283.15 K) was 888.845 ± 0.23 kg/m3. It also gave a speed of sound ([2]; 288.15 K) of 1120.7 ± 1.2 m/s, a mass density ([2]; 288.15 K) of 883.211 ± 0.23 kg/m3 and a speed of sound ([2]; 293.15 K) of 1099.6 ± 1.2 m/s. The mass density ([2]; 293.15 K) was 877.539 ± 0.23 kg/m3, the speed of sound ([2]; 298.15 K) was 1078.7 ± 1.1 m/s and the mass density ([2]; 298.15 K) was 871.833 ± 0.23 kg/m3. The speed of sound ([2]; 303.15 K) was 1057.8 ± 1.1 m/s, the mass density ([2]; 303.15 K) was 866.096 ± 0.23 kg/m3 and the speed of sound ([2]; 308.15 K) was 1037 ± 1.1 m/s. The mass density ([2]; 308.15 K) was 860.319 ± 0.23 kg/m3, the speed of sound ([2]; 313.15 K) was 1016.3 ± 1.1 m/s and the mass density ([2]; 313.15 K) was 854.502 ± 0.23 kg/m3.
CCCCCl [1-chlorobutane] gave a refractive index ([1]; 283.15 K) of 1.4075 ± 0.00037, a refractive index ([1]; 288.15 K) of 1.40481 ± 0.00037 and a refractive index ([1]; 293.15 K) of 1.40212 ± 0.00037. For the same compound, the refractive index ([1]; 298.15 K) was 1.3995 ± 0.00037, the refractive index ([1]; 303.15 K) was 1.39672 ± 0.00037 and the refractive index ([1]; 308.15 K) was 1.39395 ± 0.00037. The refractive index ([1]; 313.15 K) was 1.39131 ± 0.00037, the speed of sound ([2]; 283.15 K) was 1180.1 ± 1.2 m/s and the mass density ([2]; 283.15 K) was 897.339 ± 0.23 kg/m3. It also gave a speed of sound ([2]; 288.15 K) of 1159.5 ± 1.2 m/s, a mass density ([2]; 288.15 K) of 891.855 ± 0.23 kg/m3 and a speed of sound ([2]; 293.15 K) of 1138.8 ± 1.2 m/s. The mass density ([2]; 293.15 K) was 886.335 ± 0.23 kg/m3, the speed of sound ([2]; 298.15 K) was 1118.2 ± 1.2 m/s and the mass density ([2]; 298.15 K) was 880.705 ± 0.23 kg/m3. The speed of sound ([2]; 303.15 K) was 1097.6 ± 1.2 m/s, the mass density ([2]; 303.15 K) was 875.204 ± 0.23 kg/m3 and the speed of sound ([2]; 308.15 K) was 1077.2 ± 1.1 m/s. It also gave a mass density ([2]; 308.15 K) of 869.585 ± 0.23 kg/m3, a speed of sound ([2]; 313.15 K) of 1056.9 ± 1.1 m/s and a mass density ([2]; 313.15 K) of 863.882 ± 0.23 kg/m3.
